Biological target: bovine cardiac myosin (Bos taurus, UniProt Q9BE39)
Assay: Myosin inhibition assay (PK/LDH-coupled ATPase, bovine cardiac myofibrils)
Type: biochemical
Conditions: calcium concentration giving 50% activation, pH 6.8, read-out: bcMF pCa_6 IC50
Procedure: Small molecule agents were assessed for their ability to inhibit the enzymatic activity of bovine cardiac myosin using a biochemical assay that couples the release of ADP (adenosine diphosphate) from cardiac myosin to an enzymatic coupling system consisting of pyruvate kinase and lactate dehydrogenase (PK/LDH) and monitoring the absorbance decrease of NADH (at 340 nm) as a function of time. PK converts ADP to ATP (adenosine triphosphate) by converting PEP (phosphoenolpyruvate) to pyruvate. Pyruvate is then converted to lactate by LDH by converting NADH (nicotinamide adenine dinucleotide) to NAD (oxidized nicotinamide adenine dinucleotide). […] Prior to testing small molecule agents, the bovine myofibrils were assessed for their calcium responsiveness and the calcium concentration that achieves a 50% activation of the myofibril system was chosen as the final condition for assessing the inhibitory activity of the small molecule agents. All enzymatic activity was measured in a buffered solution containing 12 mM PIPES (piperazine-N,N′-bis(2-ethanesulfonic acid), 2 mM magnesium chloride at pH 6.8 (PM12 buffer). Final assay conditions were 1 mg/mL of bovine cardiac myofibrils, 0.4 mM PK/LDH, 50 uM ATP, 0.1 mg/mL BSA (bovine serum albumin), 10 ppm antifoam, 2 mM BME, 0.5 mM NADH, 1.5 mM PEP at the desired free calcium concentration required to achieve 50% activation of the myofibrils.
A dilution series of compound was created in DMSO such that the final desired concentration of compound would be achieved in a volume of 30 μL with a fixed DMSO concentration of 3.3% (v/v). Typically 1 μL of the dilution series were added to 384 well plate to achieve an 10 point dose response. Following the addition of 14 μL of a solution containing bovine cardiac myofibrils, PK/LDH and a solution of calcium (that achieved 50% activation), the enzymatic reaction was started with the addition of 15 μL of a solution containing ATP, PEP and NADH. The reaction progress was followed in a PerkinElmer Envision plate reader at ambient temperature using clear bottom plates. The plate reader was configured to read absorbance at 340 nm in kinetics mode for 15 minutes. Data were recorded as the slope of the absorbance response to time. The slopes of the absorbance response as a function of time were normalized to slopes on the plate containing DMSO. This normalized rate was then plotted as a function of small molecule concentration and the data was fitted to a four-parameter fit using EXCEL XLfit. The IC50 is the concentration at which fifty percent of the total response is inhibited.

Sequence of bovine cardiac myosin (Q9BE39 whole entry): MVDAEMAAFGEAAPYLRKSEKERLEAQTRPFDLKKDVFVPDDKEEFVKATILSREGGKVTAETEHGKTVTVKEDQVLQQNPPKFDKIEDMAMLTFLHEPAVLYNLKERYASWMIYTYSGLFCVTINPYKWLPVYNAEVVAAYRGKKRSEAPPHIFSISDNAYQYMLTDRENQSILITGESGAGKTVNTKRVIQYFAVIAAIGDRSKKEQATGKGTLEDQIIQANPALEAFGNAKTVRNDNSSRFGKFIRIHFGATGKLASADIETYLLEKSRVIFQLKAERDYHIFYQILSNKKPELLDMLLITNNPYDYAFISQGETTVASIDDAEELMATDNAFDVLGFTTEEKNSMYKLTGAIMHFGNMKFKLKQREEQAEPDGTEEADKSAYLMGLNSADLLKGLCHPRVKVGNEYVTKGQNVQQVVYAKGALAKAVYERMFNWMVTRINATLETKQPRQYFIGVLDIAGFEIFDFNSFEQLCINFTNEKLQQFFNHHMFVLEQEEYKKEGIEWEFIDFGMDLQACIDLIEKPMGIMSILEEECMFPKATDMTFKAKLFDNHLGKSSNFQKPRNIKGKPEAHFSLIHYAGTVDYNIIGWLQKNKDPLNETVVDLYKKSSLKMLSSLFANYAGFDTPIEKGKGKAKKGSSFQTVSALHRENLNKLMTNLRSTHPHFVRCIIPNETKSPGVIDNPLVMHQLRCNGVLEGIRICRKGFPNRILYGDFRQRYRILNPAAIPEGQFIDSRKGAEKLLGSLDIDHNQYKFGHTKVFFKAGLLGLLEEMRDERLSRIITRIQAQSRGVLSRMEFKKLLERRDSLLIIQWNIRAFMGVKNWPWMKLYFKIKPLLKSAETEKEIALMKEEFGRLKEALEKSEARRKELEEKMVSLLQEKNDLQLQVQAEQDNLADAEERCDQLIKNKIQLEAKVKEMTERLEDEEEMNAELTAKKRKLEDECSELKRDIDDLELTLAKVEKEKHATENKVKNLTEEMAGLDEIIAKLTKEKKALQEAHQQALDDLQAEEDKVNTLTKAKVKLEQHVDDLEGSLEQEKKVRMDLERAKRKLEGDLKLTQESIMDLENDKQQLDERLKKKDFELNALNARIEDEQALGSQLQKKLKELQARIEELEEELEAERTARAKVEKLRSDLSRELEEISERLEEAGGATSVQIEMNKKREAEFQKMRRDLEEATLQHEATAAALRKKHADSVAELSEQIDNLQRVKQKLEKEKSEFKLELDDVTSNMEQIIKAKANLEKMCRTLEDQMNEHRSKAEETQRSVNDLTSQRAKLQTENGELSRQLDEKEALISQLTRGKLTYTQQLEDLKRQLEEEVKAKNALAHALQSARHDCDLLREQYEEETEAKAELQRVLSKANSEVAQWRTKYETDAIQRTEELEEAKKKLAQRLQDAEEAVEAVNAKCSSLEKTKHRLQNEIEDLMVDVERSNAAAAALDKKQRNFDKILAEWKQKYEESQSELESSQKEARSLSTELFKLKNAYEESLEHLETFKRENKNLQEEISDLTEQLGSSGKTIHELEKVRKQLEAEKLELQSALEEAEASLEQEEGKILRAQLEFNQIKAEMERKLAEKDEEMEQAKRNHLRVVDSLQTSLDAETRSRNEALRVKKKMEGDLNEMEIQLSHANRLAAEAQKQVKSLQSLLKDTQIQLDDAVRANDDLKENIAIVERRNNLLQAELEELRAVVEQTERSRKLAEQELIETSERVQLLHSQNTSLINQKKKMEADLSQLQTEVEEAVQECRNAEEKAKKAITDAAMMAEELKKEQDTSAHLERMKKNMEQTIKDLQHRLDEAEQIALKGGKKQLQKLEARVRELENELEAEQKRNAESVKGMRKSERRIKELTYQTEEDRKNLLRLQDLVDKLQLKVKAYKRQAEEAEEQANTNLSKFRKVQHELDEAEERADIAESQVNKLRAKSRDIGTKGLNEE
Sequence of bovine cardiac myosin (P85100 whole entry partner): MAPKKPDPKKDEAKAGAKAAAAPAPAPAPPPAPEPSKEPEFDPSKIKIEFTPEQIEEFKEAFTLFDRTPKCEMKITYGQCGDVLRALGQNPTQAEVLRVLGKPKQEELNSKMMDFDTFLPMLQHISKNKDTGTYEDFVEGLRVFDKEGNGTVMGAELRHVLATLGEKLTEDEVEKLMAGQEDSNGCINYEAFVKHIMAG
Sequence of bovine cardiac myosin (Q3SZE5 whole entry partner): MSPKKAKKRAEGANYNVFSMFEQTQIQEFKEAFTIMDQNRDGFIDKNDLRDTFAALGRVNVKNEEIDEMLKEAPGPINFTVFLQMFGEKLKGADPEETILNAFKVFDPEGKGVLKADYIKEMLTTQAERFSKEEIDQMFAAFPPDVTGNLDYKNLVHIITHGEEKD

Structure (SMILES) | IC50 [µM]
CCn1c(=O)[nH]c2c(c1=O)CC[C@H](c1cc(F)ccc1F)N2 [Compound 74] | 1 to 15
CCn1c(=O)[nH]c2c(c1=O)CC[C@H](c1c(F)cccc1F)N2 [Compound 75] | > 15
CC(C)n1c(=O)[nH]c2c(c1=O)CC[C@H](c1cccc(F)c1F)N2 [Compound 76] | 1 to 15
CC(C)n1c(=O)[nH]c2c(c1=O)CC[C@H](c1cc(F)cc(F)c1)N2 [Compound 77] | 1 to 15
CC[C@@H](C)n1c(=O)[nH]c2c(c1=O)CC[C@H](C1CCC(F)(F)CC1)N2 [Compound 78] | < 1
O=c1[nH]c2c(c(=O)n1-c1cc(F)cc(F)c1)C[C@@H](c1ccccc1)N2 [Compound 79] | > 15
CC(C)Cn1c(=O)[nH]c2c(c1=O)CC[C@H](c1ccc(F)c(F)c1)N2 [Compound 80] | 1 to 15
O=c1[nH]c2c(c(=O)n1CC1CC1)CC[C@H](c1ccc(F)c(F)c1)N2 [Compound 82] | 1 to 15
CCn1c(=O)[nH]c2c(c1=O)CC[C@H](c1ccc(F)c(F)c1)CN2 [Compound 84] | > 15
CC(C)n1c(=O)[nH]c2c(c1=O)CC[C@@H](c1ccc(F)c(F)c1)N2 [Compound 85] | > 15
O=c1[nH]c2c(c(=O)n1CC(F)(F)F)CC[C@@H](c1ccccc1)N2 [Compound 86] | > 15
CC(C)n1c(=O)[nH]c2c(c1=O)C[C@H](Cc1ccccc1)N2 [Compound 87] | > 15
CC(C)n1c(=O)[nH]c2c(c1=O)C[C@@H](Cc1ccccc1)N2 [Compound 88] | > 15
CC(C)n1c(=O)[nH]c2c(c1=O)CCC(c1ccccc1)N2 (stereo not shown) [Compound 89] | 1 to 15
O=c1[nH]c2c(c(=O)n1C1CC1)CC[C@H](c1ccccc1)N2 [Compound 90] | 1 to 15
CC(C)n1c(=O)[nH]c2c(c1=O)C[C@@H](C)[C@H](c1ccccc1)N2 [Compound 91] | > 15

Structure (SMILES) | IC50 [µM]
CC(C)n1c(=O)[nH]c2c(c1=O)C[C@H](C)[C@H](c1ccccc1)N2 [Compound 92] | > 15
COc1cccc([C@@H]2CCc3c([nH]c(=O)n(C(C)C)c3=O)N2)c1 [Compound 93] | > 15
CCn1c(=O)[nH]c2c(c1=O)CC[C@@H](c1ccc(F)c(F)c1)N2 [Compound 94] | 1 to 15
O=c1[nH]c2c(c(=O)n1-c1ccccc1)C(O)C[C@H](c1ccc(F)cc1)N2 (stereo partly drawn) [Compound 95, (7R)-7-(4-Fluorophenyl)-5-hydroxy-3-phenyl-5,6,7,8-tetrahydropyrido[2,3-d]pyrimidine-2,4(1H,3H)-dione] | > 15
O=c1[nH]c2c(c(=O)n1C1CCC1)CC[C@H](c1ccc(F)c(F)c1)N2 [Compound 96] | 1 to 15
CCCn1c(=O)[nH]c2c(c1=O)CC[C@H](c1ccc(F)c(F)c1)N2 [Compound 97] | 1 to 15
CCn1c(=O)[nH]c2c(c1=O)CC[C@@H](c1ccc(F)c(F)c1)CN2 [Compound 98] | > 15
CCn1c(=O)[nH]c2c(c1=O)CCC[C@H](c1ccc(F)c(F)c1)N2 [Compound 99] | > 15
CCn1c(=O)[nH]c2c(c1=O)CCC[C@@H](c1ccc(F)c(F)c1)N2 [Compound 100] | > 15
[2H]C1([2H])C[C@H](c2ccc(F)c(F)c2)Nc2[nH]c(=O)n(C(C)C)c(=O)c21 [Compound 101, (7R)-7-(3,4-Difluorophenyl)-3-isopropyl-5,6,7,8-tetrahydropyrido[2,3-d]pyrimidine-2,4(1H,3H)-dione-5,5-d2] | 1 to 15
Cc1cccc([C@H]2CCc3c([nH]c(=O)n(C(C)C)c3=O)N2)c1 [Compound 102] | < 1
Cc1cccc([C@@H]2CCc3c([nH]c(=O)n(C(C)C)c3=O)N2)c1 [Compound 103] | > 15
Cc1ccccc1[C@H]1CCc2c([nH]c(=O)n(C(C)C)c2=O)N1 [Compound 104] | 1 to 15
Cc1ccccc1[C@@H]1CCc2c([nH]c(=O)n(C(C)C)c2=O)N1 [Compound 105] | > 15
CC(C)n1c(=O)[nH]c2c(c1=O)CC[C@@](C)(c1ccccc1)N2 [Compound 107] | > 15

From patent US9663516B2, “Bicyclic-pyrimidinedione compounds” (MyoKardia, Inc., priority 2014, dated 2017)
